Marks after values point to notes of the source that are not given here.
Experiment: Measurement of LogP values by HPLC on reversed phase columns (EEC directive 79/831 Annex V.A8)
Type: physicochemical
Conditions: not given
How it was run: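 LogP measured by reversed-phase HPLC following EEC directive 79/831 Annex V.A8. Lambda-max taken from UV spectra at 200–400 nm at chromatographic peak maxima; diastereoisomer values listed separately.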

SMILES	LogP	LogP [a]	LogP [b]
CCC(NC(=O)c1cc(N)ns1)C1CCCCC1 (stereo not drawn) [I-1407]	2.30[b]	–	–
COc1ccc(CNc2nsc(C(=O)NC(C)c3ccc(OC)c(OC)c3)c2Cl)cc1 (stereo not drawn) [I-1348]	3.25[a]	–	–
Nc1nsc(C(=O)NCc2ccc(F)cc2)c1Cl [I-025]	1.83[a]	–	–
CC(C)N(C(=O)c1snc(NC(=O)C(C)(C)C)c1Cl)C(C)C [I-974]	2.80[a]	–	–
CC1(C)CCCCC1CNC(=O)c1snc(N)c1Cl (stereo not drawn) [I-080]	3.05[a]	–	–
CCCC(c1ccccc1)N(C(=O)c1snc(N)c1Cl)C1CC1 (stereo not drawn) [I-908]	3.48[a]	–	–
Nc1nsc(C(=O)NCC2CCC(O)C2)c1Cl (stereo not drawn) [I-658]	0.72[a]	–	–
Nc1nsc(C(=O)NCC23CCC(CC2)C3)c1Cl [I-822]	2.53[a]	–	–
COc1ccc(CNc2nsc(C(=O)NCc3ccccc3F)c2Cl)cc1 [I-043]	3.46[a]	–	–
COc1ccc(CNc2nsc(C(=O)N(Cc3cc(C)c(C)cc3C)C3CC3)c2Cl)cc1 [I-889]	5.11[a]	–	–
Nc1nsc(C(=O)NCC2(Br)CCCCC2)c1F [I-1358]	2.56[a]	–	–
CC(C)c1ccccc1CN(C(=O)c1snc(N)c1Cl)C1CC1 [I-118]	3.33[a]	–	–
Nc1nsc(C(=O)NCc2ccc(Cl)cc2)c1C1CC1 [I-358]	2.21[a]	–	–
N#CC(NC(=O)c1snc(N)c1Br)C1CCCCC1 (stereo not drawn) [I-833]	2.21[a]	–	–
Nc1nsc(C(=O)NCc2ccccc2Cl)c1Cl [I-009]	2.12[a]	–	–
COc1ccc(CNc2nsc(C(=O)NC3CCCC3c3ccccc3)c2Cl)cc1 (stereo not drawn) [I-269]	4.41[a]	–	–
Cc1cc(C)c(CN(C(=O)c2snc(N)c2Cl)C2CC2)cc1C [I-151]	3.39[a]	–	–
Nc1cc(C(=O)NC2CCCCC2)sn1 [I-007]	1.49[a]	–	–
Cn1cc(CNC(=O)c2snc(N)c2Cl)cn1 [I-033]	0.59[a]	–	–
Nc1nsc(C(=O)NCCc2ccccc2Cl)c1Cl [I-895]	2.41[a]	–	–
COc1ccc(CNc2nsc(C(=O)NCCc3ccccc3Cl)c2Cl)cc1 [I-877]	4.07[a]	–	–
Cc1c(N)nsc1C(=O)NCc1ccc(F)c(F)c1 [I-149]	1.69[a]	–	–
O=C(NCc1ncc(C(F)(F)F)cc1Cl)c1cc(N(Cc2ccccc2)Cc2ccccc2)ns1 [I-162]	4.98[a]	–	–
COc1ccc(CNc2nsc(C(=O)NCc3cc(OC)cc(OC)c3)c2Cl)cc1 [I-1328]	3.41[a]	–	–

SMILES	LogP	LogP [a]	LogP [b]
COc1ccc(CNc2nsc(C(=O)NCc3csc4ccc(Cl)cc34)c2Cl)cc1 [I-1340]	4.37[a]	–	–
O=C(NCCc1ncc(C(F)(F)F)cc1Cl)c1snc(N(Cc2ccccc2)Cc2ccccc2)c1Br [I-950]	5.97[a]	–	–
Nc1nsc(C(=O)NCc2ccc(Cl)cc2)c1-c1ccc(F)cc1 [I-336]	2.73[a]	–	–
Cc1c(N)nsc1C(=O)NCC1CCCC1O (single isomer, unassigned) [I-707]	0.82[a]	–	–
COc1ccc(CNc2nsc(C(=O)N3CCCCC3)c2Cl)cc1 [II-108]	–	3.22	3.16
O=C(NCC1CCCCC1)c1snc(N(Cc2ccccc2)Cc2ccccc2)c1Br [I-541]	6.25[a]	–	–
COc1ccc(CNc2nsc(C(=O)Nc3ccccc3C#N)c2Cl)cc1 [I-881]	3.62[a]	–	–
COc1ccc(CNc2nsc(C(=O)Nc3cccc4c3C(C)OC4(C)C)c2Cl)cc1 (stereo not drawn) [I-869]	3.96[a]	–	–
COc1ccc(CNc2nsc(C(=O)NCc3cc(C(F)(F)F)cc(C(F)(F)F)c3)c2Cl)cc1 [I-1313]	4.46[a]	–	–
Nc1nsc(C(=O)NCc2ccc(C(F)F)cc2)c1Cl [I-133]	1.91[a]	–	–
Nc1nsc(C(=O)N(Cc2cc(Cl)ccc2F)C2CC2)c1Cl [I-364]	2.86[a]	–	–
Nc1cc(C(=O)N(Cc2cc(F)ccc2F)C2CC2)sn1 [I-997]	2.18[a]	–	–
COc1ccc(CNc2nsc(C(=O)NCC3CCCC3)c2Cl)cc1 [I-044]	4.04[a]	–	–
COc1ccc(CNc2nsc(C(=O)NC(C)(C)c3nc(C)cs3)c2Cl)cc1 [I-1267]	3.63[a]	–	–
CS(C)=Nc1nsc(C(=O)NCc2ccc(F)c(F)c2F)c1F [II-076]	–	1.39^[a]	–
CNC(=O)c1snc(N)c1Cl [I-884]	0.32[a]	–	–
COc1c(N)nsc1C(=O)NCC1CCCCCC1 [I-735]	2.50[a]	–	–
Nc1nsc(C(=O)NCCc2ccc(Cl)cc2)c1Cl [I-971]	2.46[a]	–	–
Nc1cc(C(=O)NCc2c(F)cc(F)cc2F)sn1 [I-180]	1.50[a]	–	–
COc1ccc(CNc2nsc(C(=O)NC3CC34CCCCC4)c2Cl)cc1 (stereo not drawn) [I-1548]	4.39[a]	–	–
CS(C)=Nc1nsc(C(=O)NCc2cc(F)c(F)cc2F)c1F [II-072]	–	1.43^[a]	–
COc1ccc(CNC(=O)c2snc(N)c2Cl)cn1 [I-114]	1.23[a]	–	–
Nc1nsc(C(=O)NC(Cc2ccccc2)C2CCCCC2)c1Cl (stereo not drawn) [I-1095]	3.55[b]	–	–
COc1ccc(CNc2nsc(C(=O)N3CCCC3)c2Cl)cc1 [II-102]	–	2.72	2.66

SMILES	LogP	LogP [a]	LogP [b]
Nc1nsc(C(=O)Nc2ccc(F)cc2)c1Cl [I-857]	2.04[a]	–	–
COc1ccc(CNc2nsc(C(=O)NCc3nc(C)cs3)c2Cl)cc1 [I-1203]	2.80[a]	–	–
COC(=O)c1snc(N)c1Cl [E-VII-001]	–	1.42^[a]	–
COc1ccc(CNc2nsc(C(=O)NCC34CCC(CC3)C4)c2Cl)cc1 [I-739]	4.29[a]	–	–
COc1ccc(CNc2nsc(C(=O)NCc3ccc(OC)c(Cl)c3)c2Cl)cc1 [I-1240]	3.68[a]	–	–
Nc1nsc(C(=O)Nc2cccc3ccccc23)c1Cl [I-927]	2.39[a]	–	–
O=C(NC1CCCC2CCCCC21)c1snc(NCc2ccccc2)c1Cl (stereo not drawn) [I-046]	5.23[a]	–	–
O=C(NCc1ccc(F)c(F)c1F)c1snc(N=S2CCCC2)c1F [II-078]	–	1.55^[a]	–
Cc1ccc(NC(=O)c2cc(N)ns2)cc1Cl [I-920]	2.35[a]	–	–
Nc1nsc(C(=O)NCc2ccccc2F)c1Br [I-832]	1.79[a]	–	–
CCC1(CNC(=O)c2snc(NCc3ccc(OC)cc3)c2Cl)CCCCC1 [I-824]	4.89[a]	–	–
Nc1nsc(C(=O)NCC2CCCOC2)c1Cl (stereo not drawn) [I-010]	1.07[a]	–	–
COc1ccc(CNc2nsc(C(=O)N(Cc3cc(C)ccc3F)C3CC3)c2Cl)cc1 [I-986]	4.46[a]	–	–
CN(C)C=Nc1nsc(C(=O)NC2CCCC3CCCCC32)c1Cl (stereo not drawn) [II-038]	–	3.94^[a]	–
CCC(c1ccccc1)N(C(=O)c1snc(NCc2ccc(OC)cc2)c1Cl)C1CC1 (stereo not drawn) [I-875]	4.85[a]	–	–
O=C(NCC1CCCOC1)c1snc(N=C(c2ccccc2)c2ccccc2)c1Cl (stereo not drawn) [II-007]	–	3.71^[a]	–
Cc1cccc(C)c1CN(C(=O)c1snc(N)c1Cl)C1CC1 [I-154]	3.02[a]	–	–
COc1ccc(CNc2nsc(C(=O)NCc3ccc(C)o3)c2Cl)cc1 [I-674]	3.27[a]	–	–
Cc1ccc(S(C)=Nc2nsc(C(=O)NCc3cc(F)c(F)cc3F)c2F)cc1 (stereo not drawn) [II-073]	–	2.87^[a]	–
COc1ccc(CNc2nsc(C(=O)N(Cc3cc(Cl)cc(C(F)(F)F)c3)C3CC3)c2Cl)cc1 [I-947]	5.11[a]	–	–
Cc1c(N)nsc1C(=O)NCc1ccc(Cl)nc1 [I-110]	1.09[a]	–	–
N#Cc1ccc(CNC(=O)c2snc(NC(=O)C(F)F)c2Cl)cc1 [I-813]	1.68[a]	–	–
COc1ccc(CNc2nsc(C(=O)NCc3ccc(F)cc3C(F)(F)F)c2Cl)cc1 [I-220]	4.18[a]	–	–
Nc1cc(C(=O)NCc2c(F)ccc(F)c2F)sn1 [I-165]	1.51[a]	–	–

SMILES	LogP	LogP [a]	LogP [b]
O=C(NC1CCCC2CCCCC21)c1snc(Cl)c1Cl (stereo not drawn) [E-II-026]	–	5.43^[a]	–
CC(c1cccc(C(F)(F)F)c1)N(C(=O)c1snc(N)c1Cl)C1CC1 (stereo not drawn) [I-956]	3.29[a]	–	–
Cc1cc(Cl)ccc1CNC(=O)c1snc(N)c1Cl [I-389]	2.60[a]	–	–
Nc1nsc(C(=O)Nc2cccc(F)c2)c1Cl [I-865]	2.07[a]	–	–
COc1ccc(CNc2nsc(C(=O)Nc3cc(F)cc(F)c3)c2Cl)cc1 [I-862]	4.15[a]	–	–
O=C(NCC1CCOCC1)c1snc(Cl)c1Cl [E-II-004]	–	2.05^[a]	–
Nc1nsc(C(=O)NCc2ccc(F)c(F)c2)c1Cl [I-125]	1.93[a]	–	–
C#CCOC(=O)Nc1nsc(C(=O)N[C@@H](C)C2CCCCC2)c1Cl [I-137]	3.17[a]	–	–
O=C(NCc1ccc(F)cc1F)c1cc(NC(=O)C(F)(F)F)ns1 [I-398]	2.58[a]	–	–
O=C(NCc1cccc(F)c1)c1cc(N(Cc2ccccc2)Cc2ccccc2)ns1 [I-310]	4.40[a]	–	–
CS(C)=Nc1nsc(C(=O)NCc2c(F)cc(F)cc2F)c1Cl [II-043]	–	1.42^[a]	–
C[C@H](NC(=O)c1snc(Cl)c1Cl)C1CCCCC1 [E-II-002]	–	4.56^[a]	–
Cc1c(N)nsc1C(=O)NCc1ccc(F)cc1F [I-041]	1.64[a]	–	–
COc1ccc(CNc2nsc(C(=O)NCCc3cccs3)c2Cl)cc1 [I-1269]	3.55[a]	–	–
CCCC(=O)Nc1nsc(C(=O)NCC2CCCCC2)c1Cl [I-170]	2.84[a]	–	–
CCC(NC(=O)c1snc(NCc2ccc(OC)cc2)c1Cl)c1cn(CC)nc1C (stereo not drawn) [I-1202]	3.02[a]	–	–
CC(=O)N(C(C)=O)c1nsc(C(=O)N[C@@H](C)C2CCCCC2)c1Cl [I-094]	3.73[a]	–	–
CC(=O)Nc1nsc(C(=O)NCC2CCCCC2)c1Cl [I-167]	2.14[a]	–	–
C[C@H](NC(=O)c1snc(Nc2ccccc2)c1Cl)C1CCCCC1 [I-064]	4.78[a]	–	–
COc1ccc(CNc2nsc(C(=O)NC(C)c3cccc(OC)c3)c2Cl)cc1 (stereo not drawn) [I-1234]	3.68[a]	–	–
CCn1cc(C(C)NC(=O)c2snc(NCc3ccc(OC)cc3)c2Cl)c(C)n1 (stereo not drawn) [I-1349]	2.73[a]	–	–
Nc1nsc(C(=O)NCCc2ncc(C(F)(F)F)cc2Cl)c1Br [I-964]	2.55[a]	–	–
Nc1cc(C(=O)NCCC2CCCCC2)sn1 [I-853]	2.23[a]	–	–

Same assay, conditions: HPLC LC-UV, acidic range, 0.1% formic acid in water and acetonitrile as eluent

SMILES	chromatographic logP
CCOC(=O)c1snc(N(Cc2ccccc2)Cc2ccccc2)c1Br [E-VII-008, ethyl 4-bromo-3-(dibenzylamino)-1,2-thiazole-5-carboxylate]	5.8
O=C(NCC1CCCCC1)c1snc(Cl)c1Cl [E-II-001, 3,4-dichloro-N-(cyclohexylmethyl)isothiazole-5-carboxamide]	4.11

Source: US20190110476A1, “NOVEL ISOTHIAZOLAMIDES, PROCESSES FOR THEIR PREPARATION AND THEIR USE AS FUNGICIDES” (priority 2014, published 2019)
